Measured values reported in PMC5430874 (Scientific Reports, 2017).
Numbering of substitutions follows the chain as printed.

Legend:
Type in all cases: cell-based
GPR139 E108Q3x32 = biological target: T1, GPR139 E108Q3x32 (Homo sapiens, UniProt Q6DWJ6, E108Q); assay: Fluo-4 Ca2+-assay, GPR139 mutant E108Q
T1 construct: mGluR5 signal peptide (N); expressed in transfected cells; host or cells: HEK293
T1 sequence (Q6DWJ6 2-353 E108Q limits assumed): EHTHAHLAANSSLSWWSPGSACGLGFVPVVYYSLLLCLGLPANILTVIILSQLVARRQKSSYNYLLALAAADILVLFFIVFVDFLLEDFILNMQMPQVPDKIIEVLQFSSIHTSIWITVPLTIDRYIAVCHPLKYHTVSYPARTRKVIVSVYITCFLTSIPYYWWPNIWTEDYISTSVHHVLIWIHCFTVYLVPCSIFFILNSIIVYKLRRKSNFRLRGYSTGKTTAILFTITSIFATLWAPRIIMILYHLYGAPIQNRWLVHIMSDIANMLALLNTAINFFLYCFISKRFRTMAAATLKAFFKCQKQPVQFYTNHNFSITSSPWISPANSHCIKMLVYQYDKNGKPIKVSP
Description: (§1) To study the influence of specific amino acids in the predicted binding pocket on receptor function, the desired mutations were introduced into an N-terminally c-myc-tagged wild type human GPR139 (NM_001002911.3) in the pEGFP-N1 vector (BD Biosciences)[32], [33]. As previously described, these plasmids carry the signal peptide of mGluR5 to promote cell surface expression followed by a c-myc epitope to enable detection of total and surface expression by ELISA, followed by an engineered MluI and NotI site for easy insertion of the receptor of interest. Furthermore, the start-codon in the GPR139 sequence was deleted to ensure c-myc-tagging. Mutagenesis was designed in Serial Cloner 2.6 (© Franck Perez [SerialBasics]) and carried out by GenScript (USA). All mutated residues are illustrated in Supplementary Fig. 1b. An untagged GPR139(WT) in pEGFP-N1 was also generated to ensure that the c-myc-tag had no influence on GPR139(WT) function.
(§2) All GPR139 mutants were transfected into HEK293 cells. The HEK293 cells were grown in Dulbecco’s modified Eagle’s medium (DMEM) (Gibco, 41965) supplemented with 10% dialyzed fetal bovine serum (Gibco, 26400, United States origin), 100 units/mL penicillin and 100 μg/mL streptomycin (Gibco, 15140). HEK293 cells were reverse transfected using Lipofectamine2000 (Invitrogen). […]
(§3) The Ca^2+ measurements were preformed using the Fluo-4 NW Calcium Assay Kit (Invitrogen, Molecular Probes, F36206) as previously described. […] Intracellular calcium changes were recorded as indicated on either a NOVOstar (BMG Labtech) at 37 °C with an excitation filter of 485 nm and an emission filters 520 nm or a FlexStation 3 Benchtop Multi-Mode Microplate Reader (Molecular Devices) at 37 °C with an excitation wavelength of 485 nm and emission of 525 nm.
(§4) All pharmacological data have been analyzed by using Prism 6.0 (GraphPad Software Inc., San Diego). […] Changes in potency (pEC50) and span of myc-GPR139(WT) in comparison to untagged GPR139(WT) was statistically analyzed with a paired t-test and significance was accepted at p < 0.05. […]

GPR139 H251A6x58 = biological target: T2, GPR139 H251A6x58 (Homo sapiens, UniProt Q6DWJ6, H251A); assay: Fluo-4 Ca2+-assay, GPR139 mutant H251A
T2 construct: mGluR5 signal peptide (N); expressed in transfected cells; host or cells: HEK293
T2 sequence (Q6DWJ6 2-353 H251A limits assumed): T1 sequence (Q6DWJ6 2-353 E108Q limits assumed) with Q107E, H250A
Description: as §1, with “Mutagenesis was designed in Serial Cloner 2.6 (© Franck Perez [SerialBasics]) and carried out by GenScript (USA). All mutated residues are illustrated in Supplementary Fig. 1b. An untagged GPR139(WT) in pEGFP-N1 was also generated to ensure that the c-myc-tag had no influence on GPR139(WT) function.” left out
as §3, §4

GPR139 L87A2x64 = biological target: T3, GPR139 L87A2x64 (Homo sapiens, UniProt Q6DWJ6, L87A); assay: Fluo-4 Ca2+-assay, GPR139 mutant L87A
T3 construct: mGluR5 signal peptide (N); expressed in transfected cells; host or cells: HEK293
T3 sequence (Q6DWJ6 2-353 L87A limits assumed): T1 sequence (Q6DWJ6 2-353 E108Q limits assumed) with L86A, Q107E
Description: as §1, §2, §3, §4

SMILES: COc1cc(OC)cc(C(=O)NNC(=O)Nc2cccc3ccccc23)c1 [Compound 1a]
- EC50 (GPR139 E108Q3x32; E108Q mutant): 1510 nM
- potency reduction (GPR139 E108Q3x32; E108Q mutant versus WT): 6 fold
- Emax (GPR139 E108Q3x32; E108Q, normalized to buffer (0%) and 8 µM 1a (100%)): 217 ± 21%
- EC50 (GPR139 H251A6x58; H251A mutant): 813 nM
- Emax (GPR139 H251A6x58; H251A, normalized to buffer (0%) and 8 µM 1a (100%)): 84 ± 11%
- EC50 (GPR139 L87A2x64; L87A mutant): 479 nM
- change of potency (GPR139 L87A2x64; L87A mutant versus WT (reduced surface expression)): equipotent
- Emax (GPR139 L87A2x64; L87A, normalized to buffer (0%) and 8 µM 1a (100%)): 75 ± 17%
